From PMC5819996 (Cell chemical biology, 2017)

Key:
MBP-UbiB^CΔ47 = MBP-UbiB^CΔ47 (Escherichia coli, UniProt P0A6A0); assay: malachite green ATPase assay; assay type: biochemical; settings: 100 μM ATP, 4 mM MgCl2, 1 mM Triton X-100 and 2-alkylphenols, pH 7.5, 30 °C
COQ8A^NΔ250 = COQ8A^NΔ250 (Homo sapiens, UniProt Q8NI60); assay: malachite green ATPase assay; assay type: biochemical; settings: 100 μM ATP, 4 mM MgCl2, 1 mM Triton X-100 and 2-alkylphenols, pH 7.5, 30 °C
Chain of COQ8A^NΔ250 (Q8NI60 251-647, stated change not applied): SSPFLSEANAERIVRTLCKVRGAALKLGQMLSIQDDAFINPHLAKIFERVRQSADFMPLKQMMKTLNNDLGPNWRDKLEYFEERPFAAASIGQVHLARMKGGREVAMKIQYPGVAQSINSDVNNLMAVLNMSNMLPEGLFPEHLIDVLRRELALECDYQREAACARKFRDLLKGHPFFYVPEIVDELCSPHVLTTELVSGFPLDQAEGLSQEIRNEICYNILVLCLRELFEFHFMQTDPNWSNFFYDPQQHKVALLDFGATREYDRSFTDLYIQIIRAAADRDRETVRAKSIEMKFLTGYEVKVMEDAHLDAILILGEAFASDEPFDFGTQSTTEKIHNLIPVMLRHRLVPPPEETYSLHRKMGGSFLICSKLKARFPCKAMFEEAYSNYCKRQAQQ

Chain of MBP-UbiB^CΔ47 (P0A6A0 1-499, stated change not applied): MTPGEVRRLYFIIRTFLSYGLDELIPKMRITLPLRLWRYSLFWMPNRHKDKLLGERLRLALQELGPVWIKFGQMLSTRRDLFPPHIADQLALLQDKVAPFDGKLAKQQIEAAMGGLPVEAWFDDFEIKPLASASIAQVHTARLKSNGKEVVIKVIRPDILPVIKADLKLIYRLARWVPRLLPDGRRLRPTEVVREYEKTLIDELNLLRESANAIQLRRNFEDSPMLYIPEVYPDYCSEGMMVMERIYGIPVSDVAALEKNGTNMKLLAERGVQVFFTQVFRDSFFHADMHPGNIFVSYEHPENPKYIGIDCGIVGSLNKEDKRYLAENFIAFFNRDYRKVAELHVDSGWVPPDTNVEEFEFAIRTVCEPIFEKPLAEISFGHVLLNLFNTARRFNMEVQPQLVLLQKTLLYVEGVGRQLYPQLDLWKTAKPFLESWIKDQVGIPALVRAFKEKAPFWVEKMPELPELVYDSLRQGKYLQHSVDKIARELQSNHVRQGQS

Nc1ncnc2c1ncn2[C@@H]1O[C@H](COP(=O)(O)OP(=O)(O)OP(=O)(O)O)[C@@H](O)[C@H]1O [ATP]
malachite green ATPase assay (MBP-UbiB^CΔ47): 2-alkylphenols with Triton X-100 increase the ATPase activity of UbiB family members
malachite green ATPase assay (COQ8A^NΔ250): 2-alkylphenols with Triton X-100 increase the ATPase activity of UbiB family members
